In paper PMC8072719, “Synthesis and Antiproliferative Activity of Triazoles Based on 2-Azabicycloalkanes” (Materials, 2021):
Where two headings read alike, the source gives them in different places.

Columns and labels:
[1] = system: Hs294T; assay: Growth inhibition assay (SRB assay), melanoma cell line Hs294T; assay type: cell-based, human; settings: 72 h, mean ± SD
Description: (§1) Three human cancer cell lines were used to evaluate the antiproliferative activity of the obtained compounds: melanoma cell line Hs294T, pancreatic tumor cell line MIA PaCa-2, and lung tumor cell line NCI-H1581. The normal mouse fibroblasts cell line (BALB/3T3 clone A31) was selected as reference. All these lines were purchased from the ATCC (American Type Culture Collection, Rockville, MD, USA). NCI-H1581 cells were grown in RPMI 1640 with GlutaMax medium (Gibco, Thermo Fisher Scientific, Leicestershire, UK) with 5% fetal bovine serum (FBS; HyClone, GE Healthcare, Logan, UT, USA). Hs294T and BALB/3T3 cells were grown in Dulbecco’s Modified Eagle Medium (DMEM; Gibco, Thermo Fisher Scientific, Leicestershire, UK) supplemented with 2 mM L-glutamine and 10% FBS (HyClone, GE Healthcare, Logan, UT, USA). MIA PaCa-2 cells were grown in DMEM (Gibco, Thermo Fisher Scientific, Leicestershire, UK) supplemented with 2 mM L-glutamine, 2.5% Horse Serum (Gibco, Thermo Fisher Scientific, Leicestershire, UK), and 10% FBS (HyClone, GE Healthcare, Logan, UT, USA). All culture media were supplemented with antibiotics: 100 U/mL penicillin (Polfa Tarchomin SA, Warsaw, Poland) and 100 µg/mL streptomycin (Sigma-Aldrich Chemie GmbH, Steinheim, Germany); cells were grown at 37 °C in a humid atmosphere with 5% CO2.
(§2) Twenty-four hours prior to the addition of the tested compounds, 2000 cells per well of Balb/3T3, MIA PaCa-2, and Hs294T cell lines and 2500 cells of NCI-H1581 cell line were seeded in 384-well plates (Greiner Bio-One, Kremsmünster, Austria) in an appropriate medium. The studied compounds were added to the cells at 8 different concentrations in a series of dilutions from 100 to 0.00001 µg/mL for 72 h. Cisplatin was applied as a reference compound (Teva Pharmaceuticals, Warsaw, Poland). DMSO (Sigma-Aldrich Chemie GmbH, Steinheim, Germany) was used as solvent control. The DMSO concentrations corresponded to the solvent concentrations in the tested compound solutions. Then, 30 µL per well of ice-cold 50% TCA (trichloroacetic acid, Avantor, Gliwice, Poland) was added to the cells. After one hour of incubation at room temperature (RT) cells were washed five times with water and stained with 0.4% SRB (sulforhodamine B, Sigma-Aldrich Chemie GmbH, Steinheim, Germany). Twenty-five microliters per well of 0.4% solution of SRB in 1% acetic acid (Avantor, Gliwice, Poland) was applied. After 0.5 h of incubation at RT, the unbound dye was washed out with 1% acetic acid. The bound dye in each well was dissolved in 70 µl of 10 mM TRIS (Tris base, Sigma-Aldrich, Chemie GmbH, Steinheim, Germany). A microplate reader (BioTek Synergy H4, Swindon, UK) with Gen5 software was used to read the absorbance at 540 nm. The results are presented as mean IC50 values (concentration of the compound that inhibits cell proliferation by 50%) ± standard deviation. Half-maximal inhibitory concentration (IC50) values were calculated using the Prolab-3 system based on Cheburator 0.4 [22]. Each experiment was performed in triplicate, and three independent repetitions were made for each experiment. Raw data and IC50 values were placed in the supplementary materials.

[2] = system: MIA PaCa-2; assay: Growth inhibition assay (SRB assay), pancreatic tumor cell line MIA PaCa-2; assay type: cell-based, human; settings: mean ± SD
Description: as §1, §2

[3] = system: NCI-H1581; assay: Growth inhibition assay (SRB assay), lung tumor cell line NCI-H1581; assay type: cell-based, human; settings: for SI (Selectivity Index): SI = IC50 for normal cell line BALB/3T3 / IC50 for NCI-H1581
Description: as §1, §2

[4] = system: BALB/3T3 clone A31; assay: Growth inhibition assay (SRB assay), normal fibroblasts BALB/3T3 clone A31; assay type: cell-based, mouse; settings: mean ± SD
Description: as §1, §2

[5] = Solvability in DMSO (table footnote); assay type: physicochemical; design: key to solvability in dimethyl sulfoxide (DMSO): **: poor or no solvability in dimethyl sulfoxide (DMSO); key to solvability in DMSO: [b]: poor or no solvability in DMSO
[6] = Homo sapiens, Hs 294T, read-out: IC50 Hs294T
[7] = Homo sapiens, Hs 294T, supplement, read-out: IC50 Hs294T (raw data)
[8] = Homo sapiens, MIA PaCa-2, 72 h, read-out: IC50 MIA PaCa-2
[9] = Homo sapiens, MIA PaCa-2, supplement, 72 h, read-out: IC50 MIA PaCa-2 (raw data)
[10] = Homo sapiens, NCI-H1581, 72 h, 72 h, SRB, mean ± SD, read-out: IC50 NCI-H1581
[11] = Homo sapiens, NCI-H1581, 72 h, supplement, 72 h, SRB, mean ± SD, read-out: IC50 NCI-H1581 (raw data)
[12] = Mus musculus, BALB/3T3 clone A31, 72 h, normal cell line, read-out: IC50 BALB3T3
[13] = Mus musculus, BALB/3T3 clone A31, 72 h, supplement, read-out: IC50 BALB3T3 (raw data)
[14] = 72 h, normal cell line, read-out: IC50 BALB3T3
[15] = 72 h, SRB, mean ± SD, read-out: IC50 NCI-H1581

SMILES | IC50 [1, 6] | IC50 [1, 7] | IC50 [2, 8] | IC50 [2, 9] | IC50 [3, 10] | IC50 [3, 11] | IC50 [4, 12] | IC50 [4, 13] | SI (Selectivity Index) [3] | other results
C[C@@H](c1ccccc1)N1C[C@@H](n2cc(-c3cccc(-c4cn([C@@H]5CN([C@@H](C)c6ccccc6)[C@H]6CC[C@@H]5C6)nn4)c3)nn2)[C@@H]2CC[C@H]1C2 [Compound 16, 1,3-Bis-(1-((1S,4S,5R)-2-((S)-1-phenylethyl)-2-azabicyclo[3.2.1]octan-4-yl)-1H-1,2,3-triazol-4-yl) benzene] | > 100 µM | > 100 µM | > 100 µM | > 100 µM | 53.9 ± 5.07 µM | 34.5 ± 3.24 µg/mL | > 100 µM | > 100 µM |  | IC50 ([1]; Homo sapiens, Hs 294T, supplement, read-out: IC50 Hs294T (non-rounded data)): > 100 µM; IC50 ([2]; Homo sapiens, MIA PaCa-2, supplement, 72 h, read-out: IC50 MIA PaCa-2 (non-rounded data)): > 100 µM; IC50 ([4]; Mus musculus, BALB/3T3 clone A31, 72 h, supplement, read-out: IC50 BALB3T3 (non-rounded data)): > 100 µM; solvability in dimethyl sulfoxide (DMSO) [5]: 16 **; solvability in DMSO ([5]; supplement): [b]
C[C@@H](c1ccccc1)N1C[C@H](n2cc(COCc3cn([C@H]4CN([C@@H](C)c5ccccc5)[C@H]5CC[C@@H]4C5)nn3)nn2)[C@@H]2CC[C@H]1C2 [Compound 13, (1S,1′S,4R,4′R,5R,5′R)-4,4′-(4,4′-(oxybis(methylene))bis(1H-1,2,3-triazole-4,1-diyl))bis(2-((S)-1-phenylethyl)-2-azabicyclo[3.2.1]octane)] | 13.7 ± 2.31 µM | 8.28 ± 1.4 µg/mL | 44.9 ± 3.69 µM | 27.2 ± 2.24 µg/mL | 4.88 ± 0.41 µM | 2.96 ± 0.25 µg/mL | 46.1 µM | 27.9 ± 6.85 µg/mL | 9 | IC50 [4, 14]: 46.1 ± 11.3 µM
N.N.[Cl][Pt][Cl] [Cisplatin, reference compound] |  |  |  |  |  |  |  |  | 0.3 | IC50 ([1]; read-out: IC50 Hs294T): 1.3 ± 0.5 µM; IC50 Hs294T (raw data) ([1]; supplement): 0.39 ± 0.15 µg/mL; IC50 ([2]; 72 h, read-out: IC50 MIA PaCa-2): 12.6 ± 3.13 µM; IC50 MIA PaCa-2 (raw data) ([2]; supplement, 72 h): 3.79 ± 0.94 µg/mL; IC50 ([3]; 72 h, SRB, mean ± SD, listed as cisplatin, read-out: IC50 NCI-H1581): 7.3 µM; IC50 [3, 15]: 7.27 ± 2.83 µM; IC50 NCI-H1581 (raw data) ([3]; supplement, 72 h, SRB, mean ± SD): 2.18 ± 0.85 µg/mL; IC50 [4, 14]: 1.83 ± 0.7 µM; IC50 BALB3T3 (raw data) ([4]; supplement, 72 h): 0.55 ± 0.21 µg/mL
C[C@@H](c1ccccc1)N1C[C@H](n2cc(-c3cccc(N)c3)nn2)[C@@H]2CC[C@H]1C2 [Compound 7, 3-(1-((1S,4R,5R)-2-((S)-1-phenylethyl)-2-azabicyclo[3.2.1]octan-4-yl)-1H-1,2,3-triazol-4-yl)aniline] | 65.9 ± 8.3 µM | 24.6 ± 3.1 µg/mL | 77 ± 1.98 µM | 28.7 ± 0.74 µg/mL | 7.39 ± 1.15 µM | 2.76 ± 0.43 µg/mL | 52.7 ± 6.16 µM | 19.7 ± 2.3 µg/mL | 7 | 
CC(c1ccccc1)N1CC(n2cc(C3C4CCC(C4)N3C(C)c3ccccc3)nn2)C2CCC1C2 (centres unmarked) [Compound 20] | 57 ± 13.6 µM | 27.5 ± 6.57 µg/mL | 63 ± 7.29 µM | 30.4 ± 3.51 µg/mL | 6.3 µM | 3.01 ± 0.66 µg/mL | 39.4 ± 4.86 µM | 19 ± 2.34 µg/mL | 6 | IC50 [3, 15]: 6.25 ± 1.37 µM
C[C@@H](c1ccccc1)N1C[C@@H](n2cc(COCc3cn([C@@H]4CN([C@@H](C)c5ccccc5)[C@H]5CC[C@@H]4C5)nn3)nn2)[C@@H]2CC[C@H]1C2 [Compound 12, (1S,1′S,4S,4′S,5R,5′R)-4,4′-(4,4′-(oxybis(methylene))bis(1H-1,2,3-triazole-4,1-diyl))bis(2-((S)-1-phenylethyl)-2-azabicyclo[3.2.1]octane)] | 32.4 ± 7.83 µM | 19.7 ± 4.75 µg/mL | 51.5 ± 1.6 µM | 31.2 ± 0.97 µg/mL | 6 ± 0.86 µM | 3.64 ± 0.52 µg/mL | 44.4 ± 7.5 µM | 26.9 ± 4.55 µg/mL | 7 | 
C[C@@H](c1ccccc1)N1C[C@H](n2cc(CN(Cc3cn([C@H]4CN([C@@H](C)c5ccccc5)[C@H]5CC[C@@H]4C5)nn3)Cc3cn([C@H]4CN([C@@H](C)c5ccccc5)[C@H]5CC[C@@H]4C5)nn3)nn2)[C@@H]2CC[C@H]1C2 [Compound 19, N,N,N-tris((1-((1S,4R,5R)-2-((S)-1-phenylethyl)-2-azabicyclo[3.2.1]octan-4-yl)-1H-1,2,3-triazol-4-yl)methyl) amine] | 29.1 ± 1.36 µM | 26.2 ± 1.22 µg/mL | 31.8 ± 2.31 µM | 28.7 ± 2.08 µg/mL | 3.27 ± 0.42 µM | 2.94 ± 0.38 µg/mL | 27.7 ± 3.24 µM | 24.9 ± 2.92 µg/mL |  | 

Continued, in another order:

IC50 [1, 6] | IC50 [1, 7] | IC50 [2, 8] | IC50 [2, 9] | IC50 [3, 10] | IC50 [3, 11] | SMILES | IC50 [4, 12] | IC50 [4, 13] | SI (Selectivity Index) [3] | other results
70.9 ± 5.86 µM | 28.5 ± 2.36 µg/mL | 76.5 ± 4.37 µM | 30.8 ± 1.76 µg/mL | 8.52 ± 1.39 µM | 3.43 ± 0.56 µg/mL | C[C@@H](c1ccccc1)N1C[C@H](n2cc(COCc3ccccc3)nn2)[C@@H]2CC[C@H]1C2 [Compound 9, (1S,4R,5R)-4-(4-((benzyloxy)methyl)-1H-1,2,3-triazol-1-yl)-2-((S)-1-phenylethyl)-2-azabicyclo[3.2.1]octane] | 50 ± 3.25 µM | 20.1 ± 1.31 µg/mL | 6 | 
> 100 µM | 46.1 ± 2.17 µg/mL | > 100 µM | 71.4 ± 11.8 µg/mL | 72.3 ± 34 µM | 22.6 ± 10.6 µg/mL | C[C@@H](c1ccccc1)N1C[C@H](n2cc(CO)nn2)[C@@H]2CC[C@H]1C2 [Compound 2, (1-((1S,4R,5R)-2-((S)-1-phenylethyl)-2-azabicyclo[3.2.1]octan-4-yl)-1H-1,2,3-triazol-4-yl)methanol] | > 100 µM | 56.1 ± 8.24 µg/mL |  | 
72.8 ± 9.71 µM | 26.7 ± 3.56 µg/mL | 86.31 ± 0.35 µM | 31.63 ± 0.13 µg/mL | 18.8 ± 4.45 µM | 6.88 ± 1.63 µg/mL | C=CC(=O)OCc1cn([C@H]2CN([C@@H](C)c3ccccc3)[C@H]3CC[C@@H]2C3)nn1 [Compound 5, (1-((1S,4R,5R)-2-((S)-1-phenylethyl)-2-azabicyclo[3.2.1]octan-4-yl)-1H-1,2,3-triazol-4-yl)methyl acrylate] | 28.5 ± 22.7 µM | 10.5 ± 8.31 µg/mL | 1.5 | 
74.5 ± 14.9 µM | 27.8 ± 5.58 µg/mL | 84.4 ± 1.04 µM | 31.5 ± 0.39 µg/mL | 30.8 ± 3.51 µM | 11.5 ± 1.31 µg/mL | C[C@@H](c1ccccc1)N1C[C@@H](n2cc(-c3cccc(N)c3)nn2)[C@@H]2CC[C@H]1C2 [Compound 6, 3-(1-((1S,4S,5R)-2-((S)-1-phenylethyl)-2-azabicyclo[3.2.1]octan-4-yl)-1H-1,2,3-triazol-4-yl)aniline] | 77.1 ± 1.1 µM | 28.8 ± 0.41 µg/mL | 2.5 | 
73.8 ± 10.1 µM | 29.7 ± 4.07 µg/mL | 79.12 ± 0.5 µM | 31.85 ± 0.2 µg/mL | 15.48 ± 0.12 µM | 6.23 ± 0.05 µg/mL | C[C@@H](c1ccccc1)N1C[C@@H](n2cc(COCc3ccccc3)nn2)[C@@H]2CC[C@H]1C2 [Compound 8, (1S,4S,5R)-4-(4-((benzyloxy)methyl)-1H-1,2,3-triazol-1-yl)-2-((S)-1-phenylethyl)-2-azabicyclo[3.2.1]octane] | 61.5 ± 3.28 µM | 24.7 ± 1.32 µg/mL | 4 | 
